Source: patent publication US20230321064A1, “Products for Treating the JNCL Disease” (Beyond Batten Disease Foundation, priority 2020, published 2023)
“Also recorded” adds a separate entry of the source.

How the values were obtained:
Assay type in all cases: in vivo, mouse
Cln3^Δex7-8 mice [1] = test: Neuronal cell death, cleaved caspase-3 immunohistology in brain sections
Description: (§1) Cln3^Δex7-8 mice were obtained from the Jackson Laboratory. Control (C57BL/6J) and Cln3^Δex7-8 mice were housed 3-4 per cage in a room with a 12-h light/12-h dark cycle. Food and water were provided ad libitum. All mice used in this study were analyzed at 8 and 12 months of age and were littermates produced by crossing heterozygous Cln3^Δex7-8 mice. Only males were used for this analysis. Investigators were blinded when analyzing the data, and no randomization was necessary.
(§2) For oral administration, Trehalose was dissolved in drinking water to a final concentration of 2% and changed twice a week. Trehalose-containing water was given to Cln3^Δex7-8 mice and WT mice by spontaneous oral administration starting at 21 days of age and continuing until the day the mice were sacrificed for neuropathology studies.
(§3) Miglustat was administered in mixture with the food pellet starting at 21 days of age and continuing until the day the mice were sacrificed for neuropathology studies. Miglustat food was prepared by TestDiet using the 5V5R rodent diet (LabDiet). Two concentrations were used: 1.2 g/Kg chow (indicated as “low concentration”) and 7.2 g/Kg chow (indicated as “high concentration”) and two separate groups of Cln3^Δex7-8 mice were fed with either diet. One additional group of Cln3^Δex7-8 l mice was fed with a combination of the low-concentration Miglustat food and 2% Trehalose water.
(§4) Twelve-month-old homozygous Cln3^Δex7-8 mice and age-matched controls (WT mice) were anaesthetized with isoflurane and transcardially perfused with PBS followed by 4% buffered paraformaldehyde in 0.1 M sodium phosphate buffer, pH 7.4. Brains were subsequently removed and postfixed overnight. Before sectioning, the brains were cryoprotected in a solution containing 30% sucrose in Tris-buffered saline (TBS: 50 mM Tris, pH 7.6). Consecutive 40 μm floating coronal sections were collected in 96-well plates. Series of sections were then stained with primary antisera against CD68 (AbD
(§5) Serotec, Cat. No. MCA1957), GFAP (DAKO, Cat. No. Z0334), Subunit C of mitochondrial ATP synthase (SCMAS; Abcam, Cat. No. ab181243), or cleaved caspase 3 (Asp175) (Cell Signaling, Cat. No. 9661S) followed by either rabbit anti-rat (VectorLab) or swine anti-rabbit (DAKO) secondary antibodies, and immunoreactivity detected with Vectastain ABC (avidin-biotin) kit (Vector) and diaminobenzidine as a chromogen.
(§6) Non-overlapping images were captured, on three consecutive sections, through each region of interest. All RGB images were captured via a live video camera (JVC, 3CCD, KY-F55B), mounted onto a Zeiss Axioplan microscope using a x 40 objective and saved as JPEGs. All parameters including lamp intensity, video camera set-up and calibration were maintained constant throughout image capturing. For quantification of storage and inflammation, images were analyzed using ImageJ analysis software (NIH), using an appropriate threshold that selected the foreground immunoreactivity above background. This threshold was then applied as a constant to all subsequent images analyzed per batch of animals and reagent used to determine the specific area of immunoreactivity for each antigen in each region. Data were plotted graphically as the mean percentage area of immunoreactivity per field ±s.e.m. for each region. For quantification of cell death, images were analyzed manually and scored for the presence of apoptotic nuclei. Data were plotted graphically as the mean number of apoptotic cells per field ±s.e.m. for each region. […]

Cln3^Δex7-8 mice [2] = test: Microglial activation, CD68 immunohistochemistry in brain sections; conditions: analyzed regions VPM/VPL, DLG, S1BF, V1 (FIG. 2A-D)
Description: as §1, §2, §3, §4, §5
as §6, with “Data were plotted graphically as the mean percentage area of immunoreactivity per field ±s.e.m. for each region.” left out, “nuclei.” for “nuclei. Data were plotted graphically as the mean number of apoptotic cells per field ±s.e.m. for each region.”
(S1BF), the primary visual (V1) cortex, and the dorsolateral geniculate (DLG) (Pontikis et al., 2005). To quantify microglial activation, antibodies against the microglial marker CD68 were used. […]

Cln3^Δex7-8 mice [3] = test: Lysosomal storage in cerebellum (SCMAS staining); conditions: 12 months of age
Description: as §1
For oral administration, Trehalose was dissolved in drinking water to a final concentration of 2% and changed twice a week. […]
as §5
Non-overlapping images were captured, on three consecutive sections, through each region of interest. […] For quantification of storage and inflammation, images were analyzed using ImageJ analysis software (NIH), using an appropriate threshold that selected the foreground immunoreactivity above background. […]

OC[C@H]1O[C@H](O[C@H]2O[C@H](CO)[C@@H](O)[C@H](O)[C@H]2O)[C@H](O)[C@@H](O)[C@@H]1O [Trehalose, α-D-glucopyranosyl α-D-glucopyranoside dihydrate]
cell death (cleaved CAS-3) in the VPM/VPL region (Cln3^Δex7-8 mice [1]; 12 months of age, oral, 2% Trehalose in drinking water, Miglustat in chow (FIG. 1E), dihydrate): partially prevented; also recorded: partially reduced | programmed cell death (cleaved caspase-3 reactive cells) (Cln3^Δex7-8 mice [1]; regions analyzed: VPM/VPL, dLG, S1BF, V1 (FIGS. 1A-D), oral treatment): effective in abating programmed cell death | microglial activation (CD68) (Cln3^Δex7-8 mice [2]): partially mitigated | increased storage in the cerebellum (SCMAS staining) (Cln3^Δex7-8 mice [3]): partially reduces this increased storage
